Several values for one entry are separate records, joined by “and”; a condition that tells them apart may be missing. Equal values may be shown once. Entries after “also recorded” stand apart in the source; their conditions may differ. Each block holds one molecule with its values, some of them ahead of it.
How the values were obtained:
[1] = Solubility; assay type: physicochemical; conditions: qualitative
[2] = system: HIV-1IIIB; assay: HIV-1IIIB replication inhibition assay in MT-2 lymphocytes; assay type: cell-based; conditions: for TI = CC50/EC50: HIV-1IIIB, MT-2 cells
[3] = system: HIV-1NL4-3; assay: HIV-1NL4-3 replication inhibition assay in MT-4 lymphocytes; assay type: cell-based; conditions: HIV-1NL4-3, MT-4 cells
[4] = incubation time 0 min; 3 μM, 0.2 mg/mL human liver microsome, NADPH
[5] = in vitro; conditions: human, microsomes, pH 7.4

Structure (SMILES): C=C(COCCN1CCOCC1)[C@@H]1CC[C@]2(C(=O)NCCCCCCCC(=O)NC)CC[C@]3(C)[C@H](CC[C@@H]4[C@@]5(C)CC[C@H](O)C(C)(C)[C@@H]5CC[C@]43C)[C@@H]12 [Compound 21]
solubility [1]: improved solubility; also recorded: good solubility

Structure (SMILES): C=C(C)[C@@H]1CC[C@]2(C(=O)N3CCC(CCCC(=O)N4CCOCC4)CC3)CC[C@]3(C)[C@H](CC[C@@H]4[C@@]5(C)CC[C@H](OC(=O)CC(C)(C)C(=O)O)C(C)(C)[C@@H]5CC[C@]43C)[C@@H]12 [Compound 46, N’-[N-[3β-O-(3′,3′-Dimethylsuccinyl)-lup-20(29)-en-28-oyl]-4-piperidine-butanoyl]-morpholine]
TI = CC50/EC50 [2]: 1,748

Structure (SMILES): C=C(C)[C@@H]1CC[C@]2(C(=O)NCCCCCCCC(=O)N[C@@H](CC(C)C)[C@H](O)CC(=O)O)CC[C@]3(C)[C@H](CC[C@@H]4[C@@]5(C)CC[C@H](O)C(C)(C)[C@@H]5CC[C@]43C)[C@@H]12 [Compound 3b, (3R,4S)-N’-[N-[3β-hydroxylup-20(29)-en-28-oyl]-8-aminooctanoyl]-4-amino-3-hydroxy-6-methylheptanoic acid]
TI = CC50/EC50 [3]: > 112.4

solubility [1]: increase in the derivative’s solubility
Structure (SMILES): C=C(COCCN1CCOCC1)[C@@H]1CC[C@]2(C(=O)NCCCCCCCC(=O)O)CC[C@]3(C)[C@H](CC[C@@H]4[C@@]5(C)CC[C@H](O)C(C)(C)[C@@H]5CC[C@]43C)[C@@H]12 [Compound 20, N-[3β-Hydroxy-30-(2′-morpholinoethoxy)-lup-20(29)-en-28-oyl]-8-aminooctanoic acid]

Structure (SMILES): C=C(C)[C@@H]1CC[C@]2(C(=O)N[C@@H](CC(C)C)C(=O)O)CC[C@]3(C)[C@H](CC[C@@H]4[C@@]5(C)CC[C@H](O)C(C)(C)[C@@H]5CC[C@]43C)[C@@H]12 [Compound 22, N-[3β-Hydroxy-lup-20(29)-en-28-oyl]-leucine]
EC50: concentration that inhibits HIV-1IIIB replication by 50% ([2]; HIV-1IIIB infected MT-2 cells, averages of at least three experiments): did not exhibit antiviral replication activity

Structure (SMILES): C=C(C)[C@@H]1CC[C@]2(C(=O)N3CCC(CCCC(=O)NCCCN4CCOCC4)CC3)CC[C@]3(C)[C@H](CC[C@@H]4[C@@]5(C)CC[C@H](OC(=O)CC(C)(C)C(=O)O)C(C)(C)[C@@H]5CC[C@]43C)[C@@H]12 [Compound 48, N’-[N-[3β-O-(3′,3′-Dimethylsuccinyl)-lup-20(29)-en-28-oyl]-4-piperidine-butanoyl]-3-aminopropylmorpholine]
TI = CC50/EC50 [2]: 3,087

Persentage of Remaining Parent Compounds (X±SD)% [4]: 100.0%
Structure (SMILES): C=C(C)[C@@H]1CC[C@]2(C(=O)NCCCCCCCC(=O)O)CC[C@]3(C)[C@H](CC[C@@H]4[C@@]5(C)CC[C@H](O)C(C)(C)[C@@H]5CC[C@]43C)[C@@H]12 [Compound 23, N-[3β-Hydroxy-lup-20(29)-en-28-oyl]-8-aminooctanoic acid]

Structure (SMILES): C=C(CBr)[C@@H]1CC[C@]2(C(=O)N[C@@H](CC(C)C)C(=O)O)CC[C@]3(C)[C@H](CC[C@@H]4[C@@]5(C)CC[C@H](OC(=O)CC(C)(C)C(=O)O)C(C)(C)[C@@H]5CC[C@]43C)[C@@H]12 [Compound 30, N-[3β-O-(3′,3′-Dimethylsuccinyl)-30-bromo-lup-20(29)-en-28-oyl]-leucine]
TI = CC50/EC50 [2]: 3.0×10^3 and 3,022

Structure (SMILES): C=C(C)[C@@H]1CC[C@]2(C(=O)N3CCC(CCCC(=O)O)CC3)CC[C@]3(C)[C@H](CC[C@@H]4[C@@]5(C)CC[C@H](O)C(C)(C)[C@@H]5CC[C@]43C)[C@@H]12 [Compound 38, N-[3β-Hydroxy-lup-20(29)-en-28-oyl]-4-piperidine butyric acid]
Persentage of Remaining Parent Compounds (X±SD)% [4]: 100.0%
half-life [5]: ~125 min

Structure (SMILES): C=C(C)[C@@H]1CC[C@]2(C(=O)N3CCC(CCCC(=O)NC)CC3)CC[C@]3(C)[C@H](CC[C@@H]4[C@@]5(C)CC[C@H](OC(=O)CC(C)(C)C(=O)O)C(C)(C)[C@@H]5CC[C@]43C)[C@@H]12 [Compound 45, N’-[N-[3β-O-(3′,3′-Dimethylsuccinyl)-lup-20(29)-en-28-oyl]-4-piperidine-butanoyl]-aminomethane]
TI = CC50/EC50 [3]: > 41.7

Structure (SMILES): C=C(C)[C@@H]1CC[C@]2(C(=O)N3CCC(CCCC(=O)O)CC3)CC[C@]3(C)[C@H](CC[C@@H]4[C@@]5(C)CC[C@H](OC(=O)CC(C)(C)C(=O)O)C(C)(C)[C@@H]5CC[C@]43C)[C@@H]12 [Compound 39, N-[3β-O-(3′,3′-Dimethylsuccinyl)-lup-20(29)-en-28-oyl]-4-piperidine butyric acid]
TI = CC50/EC50 [2]: 1.4 ×10^3 and 1,389

Structure (SMILES): C=C(C)[C@@H]1CC[C@]2(C(=O)N3CCC(CCCC(=O)NCCN4CCOCC4)CC3)CC[C@]3(C)[C@H](CC[C@@H]4[C@@]5(C)CC[C@H](OC(=O)CC(C)(C)C(=O)O)C(C)(C)[C@@H]5CC[C@]43C)[C@@H]12 [Compound 47, N’-[N-[3β-O-(3′,3′-Dimethylsuccinyl)-lup-20(29)-en-28-oyl]-4-piperidine-butanoyl]-2-aminoethylmorpholine]
TI = CC50/EC50 [2]: 2,473
